Data: ChEMBL document CHEMBL1201862, “PubChem BioAssay data set” (2004)
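Tested at 5 concentrations; 48 h exposure; 96-well plates; endpoints linearly interpolated, else capped at highest concentration. The concentration for 50% growth inhibition is given as GI50.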 The source made the active and inactive calls. Cut-off read from the data, not from the text of the source: active = GI50 up to about 1.1 µM and inactive = higher.

Experiments:
Test in all cases: NCI tumour cell line growth inhibition, 48 h
HOP-62 = tested on: HOP-62
MCF7 = tested on: MCF7
SNB-75 = tested on: SNB-75
SK-OV-3 = tested on: SK-OV-3
M14 = tested on: M14
HCT-116 = tested on: HCT-116
PC-3 = tested on: PC-3
NCI-H522 = tested on: NCI-H522
NCI-H226 = tested on: NCI-H226
NCI-H23 = tested on: NCI-H23
SR = tested on: SR
COLO 205 = tested on: COLO 205
RPMI-8226 = tested on: RPMI-8226
UACC-62 = tested on: UACC-62
SNB-19 = tested on: SNB-19
SF-268 = tested on: SF-268
HT-29 = tested on: HT-29
SK-MEL-28 = tested on: SK-MEL-28
OVCAR-5 = tested on: OVCAR-5
TK-10 = tested on: TK-10

Measured: GI50

O=C1N[C@H]2C(=O)c3c(Cl)sc(Cl)c3[C@H]2O1
inactive: HOP-62 16.5 µM | MCF7 16.7 µM | SNB-75 15.5 µM | SK-OV-3 15.5 µM | M14 6.28 µM | HCT-116 3.66 µM | PC-3 14.2 µM | NCI-H522 3.13 µM | NCI-H226 32.1 µM | NCI-H23 5.94 µM | SR 2.56 µM | COLO 205 6.52 µM | RPMI-8226 13.3 µM | UACC-62 13.3 µM | SNB-19 15.2 µM | SF-268 4.8 µM | HT-29 2.46 µM | SK-MEL-28 6.64 µM | OVCAR-5 19.4 µM | TK-10 29.2 µM

CCOC(=O)c1c(N2CCOCC2)[nH]c(=O)c(C(c2ccc(Cl)c([N+](=O)[O-])c2)c2c(O)c(C(=O)OCC)c(N3CCOCC3)[nH]c2=O)c1O
inactive: HOP-62 34.9 µM | MCF7 22 µM | SNB-75 48.1 µM | SK-OV-3 > 100 µM | M14 20.7 µM | HCT-116 20.3 µM | PC-3 14.2 µM | NCI-H522 28 µM | NCI-H226 > 100 µM | NCI-H23 25.8 µM | SR 36.1 µM | COLO 205 > 100 µM | RPMI-8226 26.7 µM | UACC-62 40.1 µM | SNB-19 26.5 µM | SF-268 44.2 µM | HT-29 20.9 µM | SK-MEL-28 42.6 µM | OVCAR-5 > 100 µM | TK-10 39.9 µM

CN(N=O)C(=O)NNC(=O)N(C)N=O
inactive: HOP-62 > 100 µM | MCF7 35.6 µM | SNB-75 > 100 µM | SK-OV-3 > 100 µM | M14 93.5 µM | HCT-116 74 µM | PC-3 90.6 µM | NCI-H522 27 µM | NCI-H226 > 100 µM | NCI-H23 71.8 µM | SR 8.81 µM | COLO 205 50.1 µM | RPMI-8226 32.7 µM | UACC-62 92.5 µM | SNB-19 > 100 µM | SF-268 38.9 µM | HT-29 > 100 µM | SK-MEL-28 > 100 µM | OVCAR-5 > 100 µM | TK-10 > 100 µM

COc1ccc2c(=O)c3ccoc3n(CC=C(C)C)c2c1 [ACROPHYLLINE]
inactive: HOP-62 > 79.1 µM | MCF7 33.7 µM | SNB-75 26.4 µM | SK-OV-3 44.7 µM | M14 64.4 µM | HCT-116 52.7 µM | PC-3 36.4 µM | NCI-H522 2.65 µM | NCI-H226 > 87.9 µM | NCI-H23 46.1 µM | SR 31 µM | COLO 205 > 85.3 µM | RPMI-8226 22.4 µM | UACC-62 48.4 µM | SNB-19 > 76.6 µM | SF-268 78.2 µM | HT-29 47.2 µM | SK-MEL-28 60.5 µM | OVCAR-5 > 100 µM | TK-10 > 100 µM
